# ChEMBL document CHEMBL5108020, “Design and synthesis of novel benzimidazole derivatives as potential Pseudomonas aeruginosa anti-biofilm agents inhibiting LasR: Evidence from comprehensive molecular dynamics simulation and in vitro investigation” (Eur J Med Chem, 2022)
# The source made the active and inactive calls. The calls are words filed in the database; no cut-off is given here.
# Columns and labels:
# Pseudomonas aeruginosa [1] = assay: Antibacterial activity against Pseudomonas aeruginosa ATCC 27853 assessed as zone of growth inhibition incubated for 24 hrs by agar diffusion method; format: functional; further: test concentration or dose not given here
# Pseudomonas aeruginosa [2] = assay: Antibacterial activity against Pseudomonas aeruginosa assessed as inhibition of bacterial growth incubated for 24 hrs by CLSI broth microdilution method; format: functional; conditions: for MIC: Pseudomonas aeruginosa
# Bacillus subtilis = assay: Antibacterial activity against Bacillus subtilis ATCC 6633 assessed as inhibition of bacterial growth incubated for 24 hrs by agar diffusion method; format: functional, organism-based
# [3] = Inhibition of quorum sensing system in Pseudomonas aeruginosa assessed as inhibition of biofilm production at sub-MIC incubated for 24 hrs by crystal violet staining based analysis
# [4] = Inhibition of quorum sensing system in Pseudomonas aeruginosa assessed as inhibition of pyocyanin production at sub-MIC by absorbance based analysis
# [5] = Inhibition of quorum sensing system in Pseudomonas aeruginosa assessed as inhibition of rhamnolipid production at sub-MIC by spectrophotometric method
# Klebsiella pneumoniae = assay: Antibacterial activity against Klebsiella pneumoniae ATCC 700603 assessed as inhibition of bacterial growth incubated for 24 hrs by agar diffusion method; format: functional, organism-based
# Candida albicans = assay: Antifungal activity against Candida albicans ATCC 60193 assessed as inhibition of fungal growth incubated for 48 hrs by agar diffusion method; format: functional, organism-based
# [6] = Cytotoxicity against human HDFa cells assessed as reduction in cell viability incubated for 24 hrs by MTT assay; format: toxicity, cell-based
# [7] = Selectivity index, ratio of IC50 for human HDFa cells to MIC for antibacterial activity against Pseudomonas aeruginosa; format: toxicity; conditions: read-out: Selectivity Index
# Escherichia coli = assay: Antibacterial activity against Escherichia coli ATCC 25922 assessed as inhibition of bacterial growth incubated for 24 hrs by agar diffusion method; format: functional, organism-based
# Staphylococcus aureus = assay: Antibacterial activity against Staphylococcus aureus ATCC 43300 assessed as inhibition of bacterial growth incubated for 24 hrs by agar diffusion method; format: functional, organism-based
# [8] = Inhibition of quorum sensing system in Pseudomonas aeruginosa assessed as downregulation of lasR gene expression at sub-MIC by fluorescence real time PCR analysis
# [9] = Inhibition of quorum sensing system in Pseudomonas aeruginosa assessed as downregulation of rhlR gene expression at sub-MIC by fluorescence real time PCR analysis
compound,measurement,setting,value
C[C@@H](O)[C@H]1C(=O)N2C(C(=O)O)=C(SCCNC=N)C[C@H]12 [IMIPENEM ANHYDROUS],inhibition zone (IZ),Pseudomonas aeruginosa [1],19 mm
same,MIC,Pseudomonas aeruginosa [2],93.9 µM
Cc1ccc2[nH]c(-c3ccc(OCC(=O)Nc4ccc(F)cc4)cc3)nc2c1,inhibition zone (IZ),Pseudomonas aeruginosa [1],19 mm
same,Activity,Bacillus subtilis,Active
same,SubMIC,Pseudomonas aeruginosa [2],9.3 µM
same,MIC,Pseudomonas aeruginosa [2],37.2 µM
same,inhibition,[3],59.6%
same,inhibition,[4],55.8%
same,inhibition,[5],35.2%
O=C(COc1ccc(-c2nc3ccccc3[nH]2)cc1)Nc1ccc([N+](=O)[O-])cc1,inhibition zone (IZ),Pseudomonas aeruginosa [1],17 mm
same,SubMIC,Pseudomonas aeruginosa [2],36 µM
same,MIC,Pseudomonas aeruginosa [2],145 µM
same,inhibition,[3],63.6%
same,inhibition,[4],57.6%
same,inhibition,[5],35.2%
O=C(COc1ccc(-c2nc3cc(Cl)ccc3[nH]2)cc1)Nc1ccc(F)cc1,Activity,Klebsiella pneumoniae,Active
same,inhibition zone (IZ),Pseudomonas aeruginosa [1],19 mm
same,Activity,Candida albicans,Active
same,SubMIC,Pseudomonas aeruginosa [2],8.8 µM
same,MIC,Pseudomonas aeruginosa [2],35.3 µM
same,inhibition,[3],45%
same,inhibition,[4],32.8%
same,inhibition,[5],18.1%
c1ccc2[nH]c(-c3ccc(-n4ccnc4)cc3)nc2c1,Activity,Klebsiella pneumoniae,Active
same,inhibition zone (IZ),Pseudomonas aeruginosa [1],18 mm
same,SubMIC,Pseudomonas aeruginosa [2],26.8 µM
same,MIC,Pseudomonas aeruginosa [2],109 µM
same,inhibition,[3],46.1%
same,inhibition,[4],34%
same,inhibition,[5],20.1%
O=C(COc1ccc(-c2nc3cc(Cl)ccc3[nH]2)cc1)Nc1ccccc1,inhibition zone (IZ),Pseudomonas aeruginosa [1],15 mm
same,SubMIC,Pseudomonas aeruginosa [2],18.5 µM
same,MIC,Pseudomonas aeruginosa [2],74.4 µM
same,inhibition,[3],53.1%
same,inhibition,[4],35.5%
same,inhibition,[5],20.7%
same,IC50 at 24 h,[6],102 µg/mL
same,selectivity ratio,[7],3.63
Cc1ccc2[nH]c(-c3ccc(OCC(=O)Nc4ccccc4)cc3)nc2c1,inhibition zone (IZ),Pseudomonas aeruginosa [1],15 mm
same,Activity,Bacillus subtilis,Active
same,SubMIC,Pseudomonas aeruginosa [2],19.5 µM
same,MIC,Pseudomonas aeruginosa [2],78.7 µM
same,inhibition,[3],56.3%
same,inhibition,[4],54.3%
same,inhibition,[5],33%
Cc1ccc2[nH]c(-c3ccc(OCC(=O)Nc4ccc(Cl)cc4)cc3)nc2c1,inhibition zone (IZ),Pseudomonas aeruginosa [1],19 mm
same,Activity,Bacillus subtilis,Active
same,SubMIC,Pseudomonas aeruginosa [2],8.9 µM
same,MIC,Pseudomonas aeruginosa [2],35.7 µM
same,inhibition,[3],55.7%
same,inhibition,[4],38.2%
same,inhibition,[5],29.6%
O=C(COc1ccc(-c2nc3ccccc3[nH]2)cc1)Nc1ccc(F)cc1,inhibition zone (IZ),Pseudomonas aeruginosa [1],17 mm
same,SubMIC,Pseudomonas aeruginosa [2],38.7 µM
same,MIC,Pseudomonas aeruginosa [2],156 µM
same,inhibition,[3],51.8%
same,inhibition,[4],37%
same,inhibition,[5],27.7%
CN1CCN(c2ccc(-c3nc4ccccc4[nH]3)cc2)CC1,Activity,Escherichia coli,Active
same,Activity,Klebsiella pneumoniae,Active
same,inhibition zone (IZ),Pseudomonas aeruginosa [1],20 mm
same,Activity,Staphylococcus aureus,Active
same,Activity,Candida albicans,Active
same,SubMIC,Pseudomonas aeruginosa [2],48 µM
same,MIC,Pseudomonas aeruginosa [2],193 µM
same,inhibition,[3],71.7%
same,inhibition,[4],68.7%
same,inhibition,[5],54%
same,IC50 at 24 h,[6],217 µg/mL
same,selectivity ratio,[7],3.86
same,inhibition,[8],61.7%
O=C(COc1ccc(-c2nc3cc(Cl)ccc3[nH]2)cc1)Nc1ccc(Cl)cc1,Activity,Escherichia coli,Active
same,Activity,Klebsiella pneumoniae,Active
same,inhibition zone (IZ),Pseudomonas aeruginosa [1],17 mm
same,SubMIC,Pseudomonas aeruginosa [2],16.9 µM
same,MIC,Pseudomonas aeruginosa [2],68.2 µM
same,inhibition,[3],31%
same,inhibition,[4],13.4%
same,inhibition,[5],3.7%
Cc1ccccc1NC(=O)COc1ccc(-c2nc3ccccc3[nH]2)cc1,inhibition zone (IZ),Pseudomonas aeruginosa [1],16 mm
same,Activity,Bacillus subtilis,Active
same,SubMIC,Pseudomonas aeruginosa [2],39.1 µM
same,MIC,Pseudomonas aeruginosa [2],157 µM
same,inhibition,[3],68.9%
same,inhibition,[4],68%
same,inhibition,[5],51.8%
same,IC50 at 24 h,[6],338 µg/mL
same,selectivity ratio,[7],6.01
same,inhibition,[8],26%
same,inhibition,[9],16.3%
Cc1ccc2[nH]c(-c3ccc(OCC(=O)Nc4ccccc4[N+](=O)[O-])cc3)nc2c1,inhibition zone (IZ),Pseudomonas aeruginosa [1],14 mm
same,Activity,Bacillus subtilis,Active
same,SubMIC,Pseudomonas aeruginosa [2],17.4 µM
same,MIC,Pseudomonas aeruginosa [2],69.9 µM
same,inhibition,[3],64.9%
same,inhibition,[4],60%
same,inhibition,[5],42.3%
same,IC50 at 24 h,[6],411 µg/mL
same,selectivity ratio,[7],14.6
COc1ccc(NC(=O)COc2ccc(-c3nc4ccccc4[nH]3)cc2)cc1,inhibition zone (IZ),Pseudomonas aeruginosa [1],18 mm
same,Activity,Staphylococcus aureus,Active
same,SubMIC,Pseudomonas aeruginosa [2],37.4 µM
same,MIC,Pseudomonas aeruginosa [2],151 µM
same,inhibition,[3],67.1%
same,inhibition,[4],61.8%
same,inhibition,[5],46.4%
COc1ccc(NC(=O)COc2ccc(-c3nc4cc(C)ccc4[nH]3)cc2)cc1,Activity,Escherichia coli,Active
same,inhibition zone (IZ),Pseudomonas aeruginosa [1],15 mm
same,Activity,Bacillus subtilis,Active
same,SubMIC,Pseudomonas aeruginosa [2],9 µM
same,MIC,Pseudomonas aeruginosa [2],36.1 µM
same,inhibition,[3],36.7%
same,inhibition,[4],29%
same,inhibition,[5],12.6%
c1ccc2[nH]c(-c3ccc(N4CCOCC4)cc3)nc2c1,Activity,Klebsiella pneumoniae,Active
same,inhibition zone (IZ),Pseudomonas aeruginosa [1],18 mm
same,SubMIC,Pseudomonas aeruginosa [2],50.1 µM
same,MIC,Pseudomonas aeruginosa [2],201 µM
same,inhibition,[3],60.5%
same,inhibition,[4],55.2%
same,inhibition,[5],35.7%
O=C(COc1ccc(-c2nc3cc(Cl)ccc3[nH]2)cc1)Nc1ccccc1[N+](=O)[O-],Activity,Klebsiella pneumoniae,Active
same,inhibition zone (IZ),Pseudomonas aeruginosa [1],16 mm
same,SubMIC,Pseudomonas aeruginosa [2],16.5 µM
same,MIC,Pseudomonas aeruginosa [2],66.5 µM
same,inhibition,[3],51.8%
same,inhibition,[4],35.8%
same,inhibition,[5],20.4%
O=C(COc1ccc(-c2nc3cc(Cl)ccc3[nH]2)cc1)Nc1ccc([N+](=O)[O-])cc1,Activity,Klebsiella pneumoniae,Active
same,inhibition zone (IZ),Pseudomonas aeruginosa [1],16 mm
same,SubMIC,Pseudomonas aeruginosa [2],16.5 µM
same,MIC,Pseudomonas aeruginosa [2],66.5 µM
same,inhibition,[3],32.5%
same,inhibition,[4],14.8%
same,inhibition,[5],7%
C/C(=C\C(=O)OCCCCCCCCC(=O)O)C[C@@H]1OC[C@H](C[C@@H]2O[C@H]2[C@@H](C)[C@H](C)O)[C@@H](O)[C@H]1O [MUPIROCIN],IC50 at 24 h,[6],161 µg/mL
Cc1ccc(NC(=O)COc2ccc(-c3nc4ccccc4[nH]3)cc2)cc1,inhibition zone (IZ),Pseudomonas aeruginosa [1],13 mm
same,SubMIC,Pseudomonas aeruginosa [2],39.1 µM
same,MIC,Pseudomonas aeruginosa [2],157 µM
same,inhibition,[3],52.4%
same,inhibition,[4],36.4%
same,inhibition,[5],25.1%
Cc1ccc2[nH]c(-c3ccc(OCC(=O)Nc4ccc([N+](=O)[O-])cc4)cc3)nc2c1,inhibition zone (IZ),Pseudomonas aeruginosa [1],15 mm
same,Activity,Bacillus subtilis,Active
same,SubMIC,Pseudomonas aeruginosa [2],17.4 µM
same,MIC,Pseudomonas aeruginosa [2],69.9 µM
same,inhibition,[3],44.1%
same,inhibition,[4],33.7%
same,inhibition,[5],15%
Cc1ccc(NC(=O)COc2ccc(-c3nc4cc(Cl)ccc4[nH]3)cc2)cc1,Activity,Klebsiella pneumoniae,Active
same,inhibition zone (IZ),Pseudomonas aeruginosa [1],18 mm
same,SubMIC,Pseudomonas aeruginosa [2],8.9 µM
same,MIC,Pseudomonas aeruginosa [2],35.7 µM
same,inhibition,[3],31.3%
same,inhibition,[4],24.5%
same,inhibition,[5],11.4%
O=C(COc1ccc(-c2nc3ccccc3[nH]2)cc1)Nc1ccccc1,inhibition zone (IZ),Pseudomonas aeruginosa [1],19 mm
same,SubMIC,Pseudomonas aeruginosa [2],40.7 µM
same,MIC,Pseudomonas aeruginosa [2],164 µM
same,inhibition,[3],51.5%
same,inhibition,[4],36.7%
same,inhibition,[5],28.2%
O=C(COc1ccc(-c2nc3ccccc3[nH]2)cc1)Nc1ccccc1[N+](=O)[O-],inhibition zone (IZ),Pseudomonas aeruginosa [1],15 mm
same,Activity,Bacillus subtilis,Active
same,SubMIC,Pseudomonas aeruginosa [2],36 µM
same,MIC,Pseudomonas aeruginosa [2],145 µM
same,inhibition,[3],63.8%
same,inhibition,[4],60.3%
same,inhibition,[5],44.6%
Cc1ccc(NC(=O)COc2ccc(-c3nc4cc(C)ccc4[nH]3)cc2)cc1,Activity,Escherichia coli,Active
same,inhibition zone (IZ),Pseudomonas aeruginosa [1],16 mm
same,SubMIC,Pseudomonas aeruginosa [2],18.8 µM
same,MIC,Pseudomonas aeruginosa [2],57.7 µM
same,inhibition,[3],64.9%
same,inhibition,[4],60%
same,inhibition,[5],37.8%
Cc1ccc2[nH]c(-c3ccc(OCC(=O)Nc4ccccc4C)cc3)nc2c1,inhibition zone (IZ),Pseudomonas aeruginosa [1],14 mm
same,Activity,Candida albicans,Active
same,SubMIC,Pseudomonas aeruginosa [2],18.8 µM
same,MIC,Pseudomonas aeruginosa [2],57.7 µM
same,inhibition,[3],39.5%
same,inhibition,[4],31%
same,inhibition,[5],13.6%
c1ccc2[nH]c(-c3ccc(N4CCCCC4)cc3)nc2c1,inhibition zone (IZ),Pseudomonas aeruginosa [1],19 mm
same,Activity,Staphylococcus aureus,Active
same,SubMIC,Pseudomonas aeruginosa [2],50.4 µM
same,MIC,Pseudomonas aeruginosa [2],203 µM
same,inhibition,[3],67.3%
same,inhibition,[4],63.6%
same,inhibition,[5],49.6%
Cc1ccccc1NC(=O)COc1ccc(-c2nc3cc(Cl)ccc3[nH]2)cc1,Activity,Klebsiella pneumoniae,Active
same,inhibition zone (IZ),Pseudomonas aeruginosa [1],16 mm
same,SubMIC,Pseudomonas aeruginosa [2],17.8 µM
same,MIC,Pseudomonas aeruginosa [2],71.7 µM
same,inhibition,[3],29%
same,inhibition,[4],6.5%
same,inhibition,[5],3%
O=C(COc1ccc(-c2nc3ccccc3[nH]2)cc1)Nc1ccc(Cl)cc1,Activity,Klebsiella pneumoniae,Active
same,inhibition zone (IZ),Pseudomonas aeruginosa [1],17 mm
same,Activity,Candida albicans,Active
same,SubMIC,Pseudomonas aeruginosa [2],37 µM
same,MIC,Pseudomonas aeruginosa [2],149 µM
same,inhibition,[3],63.1%
same,inhibition,[4],58%
same,inhibition,[5],34.4%
CC[C@H]1OC(=O)[C@H](C)[C@@H](O[C@H]2C[C@@](C)(OC)[C@@H](O)[C@H](C)O2)[C@H](C)[C@@H](O[C@@H]2O[C@H](C)C[C@H](N(C)C)[C@H]2O)[C@](C)(O)C[C@@H](C)CN(C)[C@H](C)[C@@H](O)[C@]1(C)O [AZITHROMYCIN],SubMIC,Pseudomonas aeruginosa [2],20.1 µM
same,MIC,Pseudomonas aeruginosa [2],85.4 µM
same,inhibition,[3],52.5%
same,inhibition,[4],65%
same,inhibition,[5],55.2%
same,inhibition,[8],40.8%
same,inhibition,[9],41.5%
COc1ccc(NC(=O)COc2ccc(-c3nc4cc(Cl)ccc4[nH]3)cc2)cc1,inhibition zone (IZ),Pseudomonas aeruginosa [1],17 mm
same,Activity,Bacillus subtilis,Active
same,Activity,Candida albicans,Active
same,SubMIC,Pseudomonas aeruginosa [2],8.5 µM
same,MIC,Pseudomonas aeruginosa [2],34.3 µM
same,inhibition,[3],39.2%
same,inhibition,[4],28.9%
same,inhibition,[5],13.8%
